From patent US20180219160A1, “BENZOBIS(THIADIAZOLE) DERIVATIVE, INK COMPRISING THE SAME, AND ORGANIC ELECTRONIC DEVICE USING THE SAME” (UBE INDUSTRIES, LTD., priority 2014, published 2018)

Tests used:
[1] = Evaluation of solubility in organic solvents (visual observation of complete dissolution); format: physicochemical
Experimental: [Evaluation of Solubility] The evaluation of the solubility of the synthesized compound was conducted by the following method.
About 2-3 mg of the synthesized compound was precisely weighed, and each solvent was added to the compound such that a predetermined concentration of the solute (0.3 wt %, 0.2 wt %, 0.1 wt %) was reached. The resultant mixture was stirred for 30 minutes at a predetermined temperature, and then it was evaluated by visual appearance observation whether or not the solute (synthesized compound) was completely dissolved in the solvent, which was the result of the evaluation of the solubility. As the solvent, chloroform (boiling point 61° C.), toluene (boiling point 111° C.), anisole (boiling point 154° C.), mesitylene (boiling point 165° C.), ortho-dichlorobenzene (boiling point 181° C.) and 1-methylnaphthalene (boiling point 241° C.) were used.

[2] = Thermal weight loss analysis (initial decomposition temperature); format: physicochemical
[3] = 1-methylnaphthalene, room temperature (25° C.)
[4] = chloroform, room temperature (25° C.)
[5] = mesitylene, room temperature (25° C.)

For CCCCCCN1C(=O)c2cc(-c3c4c(c(-c5cc6c(s5)C(=O)N(CCCCCC)C6=O)c5nsnc35)N=S=N4)sc2C1=O [Compound (12-6)], which “solubility (concentration completely dissolved)” value (from here on “solubility”) [1, 3] is on record?
The value was no less than 0.1 wt %.

And the “solubility” value [1, 4]?
Its value is no less than 0.2 wt %.

And the “solubility” value ([1]; mesitylene, 80° C.)?
The value was no less than 0.3 wt %.

And the “solubility” value ([1]; toluene, 80° C.)?
Its value is no less than 0.3 wt %.

And the initial decomposition temperature [2]?
Its initial decomposition temperature is 364 °C.

Which “solubility” value [1, 3] does the source give for CCCCCCCCN1C(=O)c2cc(-c3c4c(c(-c5cc6c(s5)C(=O)N(CCCCCCCC)C6=O)c5nsnc35)N=S=N4)sc2C1=O [Compound (12-8)] here?
Its value is no less than 0.3 wt %.

What about the “solubility” value [1, 4] of the same compound?
The value was no less than 0.2 wt %.

And the “solubility” value [1, 5]?
The value was no less than 0.3 wt %.

What about the “solubility” value ([1]; toluene, room temperature (25° C.)) of the same compound?
Its value is no less than 0.3 wt %.

What about the initial decomposition temperature [2] of the same compound?
The initial decomposition temperature was 367 °C.

What does the source list for CCCCCCCCCCCCN1C(=O)c2cc(-c3c4c(c(-c5cc6c(s5)C(=O)N(CCCCCCCCCCCC)C6=O)c5nsnc35)N=S=N4)sc2C1=O [Compound (12-12)]?
solubility (concentration completely dissolved) [1, 4]: ≥ 0.1 wt %; solubility (concentration completely dissolved) ([1]; mesitylene, 60° C.): ≥ 0.3 wt %; solubility (concentration completely dissolved) ([1]; toluene, 60° C.): ≥ 0.3 wt %; initial decomposition temperature [2]: 360 °C

Which results are given for CCCCC(CC)CN1C(=O)c2cc(-c3c4c(c(-c5cc6c(s5)C(=O)N(CC(CC)CCCC)C6=O)c5nsnc35)N=S=N4)sc2C1=O (stereo not drawn) [Compound (12-EH)]?
solubility (concentration completely dissolved) [1, 3]: ≥ 0.3 wt %; solubility (concentration completely dissolved) [1, 4]: ≥ 0.2 wt %; solubility (concentration completely dissolved) ([1]; mesitylene, 80° C.): ≥ 0.3 wt %; solubility (concentration completely dissolved) ([1]; ortho-dichlorobenzene, room temperature (25° C.)): ≥ 0.3 wt/o; solubility (concentration completely dissolved) ([1]; toluene, 60° C.): ≥ 0.3 wt %; initial decomposition temperature [2]: 369 °C

What does the source list for O=C1c2cc(-c3c4c(c(-c5cc6c(s5)C(=O)N(CC(F)(F)C(F)(F)C(F)(F)F)C6=O)c5nsnc35)N=S=N4)sc2C(=O)N1CC(F)(F)C(F)(F)C(F)(F)F [Compound (12-HepFBu)]?
solubility (concentration completely dissolved) ([1]; anisole, room temperature (25° C.)): ≥ 0.1 wt %; solubility (concentration completely dissolved) [1, 4]: ≥ 0.1 wt %; solubility (concentration completely dissolved) [1, 5]: ≥ 0.1 wt %; initial decomposition temperature [2]: 367 °C

For CN1C(=O)c2cc(-c3c4c(c(-c5cc6c(s5)C(=O)N(C)C6=O)c5nsnc35)N=S=N4)sc2C1=O [Compound (12-Me)], which initial decomposition temperature [2] is on record?
The initial decomposition temperature was 367 °C.

With CN1C(=O)c2cc3cc(-c4c5c(c(-c6cc7cc8c(cc7s6)C(=O)N(C)C8=O)c6nsnc46)N=S=N5)sc3cc2C1=O [Compound (22-1)] as the compound, how does the initial decomposition temperature [2] read?
The initial decomposition temperature was 475 °C.

For CCCCCCN1C(=O)c2cc3cc(-c4c5c(c(-c6cc7cc8c(cc7s6)C(=O)N(CCCCCC)C8=O)c6nsnc46)N=S=N5)sc3cc2C1=O [Compound (22-6)], which initial decomposition temperature [2] is on record?
Its initial decomposition temperature is 405 °C.
